From PubChem BioAssay AID651985 (The Scripps Research Institute Molecular Screening Center, 2013) come the findings set out here.

For one assay, the system named is LYPLA1. As to the kind of experiment: PubChem AID 651985. The following applies: C57 mice dosed, tissue gel ABPP with NHU5 probe, stronger effect = higher value.
The next assay has as its system LYPLA2. As to the kind of experiment: PubChem AID 651985. The note with it: C57 mice dosed, tissue gel ABPP with NHU5 probe, stronger effect = higher value.

Structures are written as SMILES. Activity calls are given as the source filed them. How the calls were made is not given here.

On to `COc1ccc(N2CCN(C(=O)c3cc4c(s3)-c3ccccc3S(=O)(=O)C4)CC2)cc1`, for which the inhibition was 0% with LYPLA1 (heart); 0% (inactive) with LYPLA1; 0% in the assay on LYPLA1 (kidney); 0% in the assay on LYPLA1 (liver); 0% in the assay on LYPLA1 (lung); 100% in the assay with LYPLA2 (heart). The inhibition is 50% in the assay with LYPLA2, 75% in the assay on LYPLA2 (kidney), 0% in the assay on LYPLA2 (liver) and 100% in the assay on LYPLA2 (lung).

As to `O=C(CN1CCN(C(=O)c2ccco2)CC1)Nc1cc(C(F)(F)F)ccc1Cl`, the inhibition in the assay with LYPLA1 (heart) is 100%; with LYPLA1, 25%; with LYPLA1 (kidney), 75%; with LYPLA1 (liver) it was 0%; in the assay on LYPLA1 (lung) it was 100%; with LYPLA2 (heart) it was 0%. For the same compound, the inhibition in the assay with LYPLA2 is 0% (inactive); with LYPLA2 (kidney), 0%; in the assay with LYPLA2 (liver) it was 0%; in the assay on LYPLA2 (lung) it was 0%.
